Consider five molecules from patent US20160067241A1, “COMPOSITIONS AND METHODS TO IMPROVE THE THERAPEUTIC BENEFIT OF SUBOPTIMALLY ADMINISTERED CHEMICAL COMPOUNDS INCLUDING SUBSTITUTED NAPHTHALIMIDES SUCH AS AMONAFIDE FOR THE TREATMENT OF IMMUNOLOGICAL, METABOLIC, INFECTIOUS, AND BENIGN OR NEOPLASTIC HYPERPROLIFERATIVE DISEASE CONDITIONS” (priority 2013, published 2016).

The subject of data set [1] is RIF-1 murine fibrosarcoma. As to the kind of experiment: RIF-1 fibrosarcoma tumor growth delay (tumor volume quadrupling time) in mice. Format: in vivo, Female C3H mice. The following applies: for enhancement of amonafide activity by sensitizing or potentiating agent: agent given with amonafide. The source says: Tables 1 and 2, shown in FIGS. 1 and 2, respectively, show the use of amonafide, alone or in combination with another anti-neoplastic drug, in a tumor model in mice as described below Female C3H mice (Charles River Laboratories, Hollister, Calif.), approximately 3 months old, were used for the study. The average body weight was approximately 25 g. Animals were maintained in isolator cages on a 12-hour light-and-dark cycle. Food and water were available ad libitum. The RIF-1 murine fibrosarcoma cell line was maintained in in vitro culture (Waymouth medium supplemented with 20% fetal bovine serum) at 37° C. in a humidified 5% CO2 incubator. Log-phase RIF-1 cells were trypsinized and harvested from cell culture flasks to yield a concentration of 4×10^6 cells/mL, then injected intradermally in a volume of 50 μL (equivalent to 2×10^5 cells per injection) into both flanks of each mouse. Nine days later, when tumors reached approximately 100 mm^3 in size, the animals were randomized to different treatment groups. The intraperitoneal injection volume was 100 μL. The oral administration volume was 100 μL. For evaluation of tumor growth delay, tumors were measured three times weekly for up to 22 days with Vernier calipers. Tumor volume (cubic millimeters, mm^3) was calculated according to the following formula: V=π/6×D1×D2×D3, where D1, D2, and D3 are perpendicular diameters measured in […]. Tumor volume quadrupling time (TVQT), defined as the time required for a tumor to grow to four times (4×) its initial volume (at the time of treatment), was used as a study endpoint. The TVQT was determined for each treatment group and expressed in days as the mean±standard error (SE). In these tables, “CDDP” is cisplatin, “VBL” is vinblastine, “HHT” is homoharringtonine, “5FU” is 5-fluorouracil, “CPT” is camptothecin, “RA” is rosmarinic acid, and “MGBG” is methylglyoxalbisguanylhydrazone. For solvents and excipients, “Sal” is saline, “NMF” is N-methylformamide, and “PEG400” is polyethylene glycol 400. For routes of administration, “IP” is intraperitoneal, “PO” is oral, “IM” is intramuscular, and “SC” is subcutaneous. In these tables, the use of the “+” symbol means that both drugs were administered at the same time, while the use of the “ ? ” symbol means that the drug to the left of the symbol was administered first, followed by the drug to the right of the symbol; the second drug was administered 30 minutes after the first drug. In the headings for these tables, “Days to 4×” is the number of days it takes the tumors to grow to four times their original size. “T/C” represents the average number of days that it takes the tumors to grow to four times their original size for the specified treatment divided by the number of days that it takes the tumors to grow to four times their original size for the control.

Data set [2] relates to white blood cell count (WBC). The following applies: patients; cited from earlier work.
The test system of another data set is topoisomerase II. The following applies: Hsiang et al. 1989; cited from earlier work.
In a further data set the target is T1, N-acetyltransferase NAT2 (Homo sapiens, UniProt P11245).
T1 sequence (P11245 1-290): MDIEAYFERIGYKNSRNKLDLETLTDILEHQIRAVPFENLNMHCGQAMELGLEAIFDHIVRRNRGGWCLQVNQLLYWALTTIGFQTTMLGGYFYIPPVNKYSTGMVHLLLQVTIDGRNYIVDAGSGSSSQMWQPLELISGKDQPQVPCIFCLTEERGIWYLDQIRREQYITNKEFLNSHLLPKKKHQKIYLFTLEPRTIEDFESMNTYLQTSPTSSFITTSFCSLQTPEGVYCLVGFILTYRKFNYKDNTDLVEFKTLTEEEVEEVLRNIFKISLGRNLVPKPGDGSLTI
The following applies: cited from earlier work.

The target of data set [3] is glycogen synthase kinase-3β (GSK-3β) (Homo sapiens, UniProt P49841). The following applies: cited from earlier work.
glycogen synthase kinase-3β (GSK-3β), sequence (P49841 whole entry, species assumed): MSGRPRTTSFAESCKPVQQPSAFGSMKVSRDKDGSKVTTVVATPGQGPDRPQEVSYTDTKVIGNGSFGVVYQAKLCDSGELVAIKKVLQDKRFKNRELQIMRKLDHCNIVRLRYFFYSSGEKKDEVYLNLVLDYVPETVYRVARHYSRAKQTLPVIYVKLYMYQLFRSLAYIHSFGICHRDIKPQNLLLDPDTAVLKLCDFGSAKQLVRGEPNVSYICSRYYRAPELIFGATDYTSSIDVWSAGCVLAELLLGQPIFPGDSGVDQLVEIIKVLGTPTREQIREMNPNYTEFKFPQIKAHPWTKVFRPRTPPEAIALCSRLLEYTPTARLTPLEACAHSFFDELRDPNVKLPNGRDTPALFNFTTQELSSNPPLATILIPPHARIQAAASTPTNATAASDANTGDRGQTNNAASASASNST

Turning to `COc1ccc2cc3[n+](cc2c1OC)CCc1cc2c(cc1-3)OCO2` [berberine], the “enhancement of amonafide activity by sensitizing or potentiating agent” value in data set [1] is listed as “enhances amonafide activity”.
With `CC(=O)Nc1cc2c3c(cccc3c1)C(=O)N(CCN(C)C)C2=O` [acetyl amonafide], in data set [2], the “impact on white blood cell count” value was “induce leukocytopenia and, in particular, granulocytopenia”.
Turning to `NC(=O)c1cccnc1` [nicotinamide], in data set [1], the “enhancement of amonafide activity by sensitizing or potentiating agent” value is “enhances amonafide activity”.
Consider `CN(C)CCN1C(=O)c2cccc3cc(N)cc(c23)C1=O` [amonafide, 5-amino-2-[2-(dimethylamino)ethyl]-1H-benzo[de]isoquinoline-1,3(2H)-dione], for which, in data set [1] (RIF-1 tumors in C3H mice, alone or in combination with another anti-neoplastic drug), the “effect on tumor growth” value is “significant effect on tumor growth”. The “combination effect with another anti-neoplastic drug” value in data set [1] (amonafide administered together with another anti-neoplastic drug) is recorded as “evidence of synergism”. Besides, the “enhancement of antitumor effects of other drugs (chemosensitizer or chemopotentiator)” value in data set [1] (amonafide combined with a second drug) was “enhanced the antitumor effects of cisplatin, 5-fluorouracil, homoharringtonine, vinblastine, camptothecin, methylglyoxalbisguanylhydrazone, and cytarabine”. The “antiproliferative activity by route” value in data set [1] (direct systemic (intraperitoneal) administration or oral route) is recorded as “active antiproliferative agent”. The activity by schedule result in data set [1] (single administration or multiple oral doses) is given as “active after a single administration or given as multiple doses orally”. Moreover, in the data set with topoisomerase II, the “promotion of topoisomerase II-mediated DNA cleavage” value was “promote topoisomerase II-mediated DNA cleavage”. Besides, the “metabolism by NAT2” value on N-acetyltransferase NAT2 is given as “converted to an active metabolite by way of the N-acetyltransferase NAT2”.
With `CN1C(=O)/C(=C2/C(=O)Nc3ccccc32)c2ccccc21` [Meisoindigo], the “concentration for inhibition of GSK-3β” value in data set [3] was 5 to 50 nM.
